Measurements taken from PubChem BioAssay (NCI).
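Protocol summary: plate cells (96-well), add compound at 5 concentrations, incubate 48 h, interpolate endpoints linearly. TGI marks complete inhibition of growth.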

How the values were obtained:
Test in all cases: NCI tumour cell line growth inhibition, 48 h
TK-10 renal = system: TK-10 renal
LOX IMVI melanoma = system: LOX IMVI melanoma
HOP-62 NSCLC = system: HOP-62 NSCLC
U251 CNS = system: U251 CNS
MALME-3M melanoma = system: MALME-3M melanoma
COLO 205 colon = system: COLO 205 colon
CCRF-CEM leukemia = system: CCRF-CEM leukemia
RPMI-8226 leukemia = system: RPMI-8226 leukemia
786-0 renal = system: 786-0 renal
OVCAR-5 ovarian = system: OVCAR-5 ovarian
DMS 273 small cell lung = system: DMS 273 small cell lung
A498 renal = system: A498 renal
NCI-H522 lung = system: NCI-H522 lung
SF-539 CNS = system: SF-539 CNS
SNB-75 CNS = system: SNB-75 CNS
ACHN renal = system: ACHN renal
SK-MEL-5 melanoma = system: SK-MEL-5 melanoma
HT29 colon = system: HT29 colon
SN12C renal = system: SN12C renal
HOP-18 NSCLC = system: HOP-18 NSCLC
CAKI-1 renal = system: CAKI-1 renal
NCI-H226 lung = system: NCI-H226 lung
RXF-631 renal = system: RXF-631 renal
DMS 114 small cell lung = system: DMS 114 small cell lung
EKVX NSCLC = system: EKVX NSCLC
K-562 leukemia = system: K-562 leukemia
DLD-1 colon = system: DLD-1 colon
SNB-19 CNS = system: SNB-19 CNS
MOLT-4 leukemia = system: MOLT-4 leukemia
KM20L2 colon = system: KM20L2 colon
SF-295 CNS = system: SF-295 CNS
UACC-62 melanoma = system: UACC-62 melanoma
NCI-H460 lung = system: NCI-H460 lung
LXFL 529 NSCLC = system: LXFL 529 NSCLC
SK-MEL-28 melanoma = system: SK-MEL-28 melanoma
OVCAR-8 ovarian = system: OVCAR-8 ovarian
HOP-92 NSCLC = system: HOP-92 NSCLC
HCT-15 colon = system: HCT-15 colon
OVCAR-4 ovarian = system: OVCAR-4 ovarian
NCI-H23 lung = system: NCI-H23 lung
A549 NSCLC = system: A549 NSCLC
HCC-2998 colon = system: HCC-2998 colon
M19-MEL melanoma = system: M19-MEL melanoma
SF-268 CNS = system: SF-268 CNS
IGROV1 ovarian = system: IGROV1 ovarian
KM12 colon = system: KM12 colon
HCT-116 colon = system: HCT-116 colon
SK-OV-3 ovarian = system: SK-OV-3 ovarian
OVCAR-3 ovarian = system: OVCAR-3 ovarian
HL-60(TB) leukemia = system: HL-60(TB) leukemia
SW-620 colon = system: SW-620 colon
SK-MEL-2 melanoma = system: SK-MEL-2 melanoma
M14 melanoma = system: M14 melanoma
UO-31 renal = system: UO-31 renal
SNB-78 CNS = system: SNB-78 CNS

COC(=O)c1ccc(C=C(C#N)C#N)cc1
TGI (TK-10 renal): 79.1 µM | TGI (LOX IMVI melanoma): 50.3 µM | TGI (HOP-62 NSCLC): 74.8 µM | TGI (U251 CNS): 61.5 µM | TGI (MALME-3M melanoma): 39.6 µM | TGI (COLO 205 colon): 74.6 µM | TGI (CCRF-CEM leukemia): 51.9 µM | TGI (RPMI-8226 leukemia): 72.6 µM | TGI (786-0 renal): 33.4 µM | TGI (OVCAR-5 ovarian): > 100 µM | TGI (DMS 273 small cell lung): 35.2 µM | TGI (A498 renal): > 100 µM | TGI (NCI-H522 lung): 30.1 µM | TGI (SF-539 CNS): 39.8 µM | TGI (SNB-75 CNS): 82.5 µM | TGI (ACHN renal): 56.9 µM | TGI (SK-MEL-5 melanoma): 33.1 µM | TGI (HT29 colon): > 100 µM | TGI (SN12C renal): 41.6 µM | TGI (HOP-18 NSCLC): > 100 µM | TGI (CAKI-1 renal): 74.7 µM | TGI (NCI-H226 lung): 80.4 µM | TGI (RXF-631 renal): > 100 µM | TGI (DMS 114 small cell lung): 49.4 µM | TGI (EKVX NSCLC): > 100 µM | TGI (K-562 leukemia): 62.8 µM | TGI (DLD-1 colon): 47.9 µM | TGI (SNB-19 CNS): > 100 µM | TGI (MOLT-4 leukemia): 65.7 µM | TGI (KM20L2 colon): > 100 µM | TGI (SF-295 CNS): 91.6 µM | TGI (UACC-62 melanoma): 57.6 µM | TGI (NCI-H460 lung): > 100 µM | TGI (LXFL 529 NSCLC): 37.4 µM | TGI (SK-MEL-28 melanoma): 39.9 µM | TGI (OVCAR-8 ovarian): 56.5 µM | TGI (HOP-92 NSCLC): 39.6 µM | TGI (HCT-15 colon): > 100 µM | TGI (OVCAR-4 ovarian): 47 µM | TGI (NCI-H23 lung): 38.4 µM | TGI (A549 NSCLC): > 100 µM | TGI (HCC-2998 colon): 32.9 µM | TGI (M19-MEL melanoma): 75.4 µM | TGI (SF-268 CNS): 59.1 µM | TGI (IGROV1 ovarian): 73.8 µM | TGI (KM12 colon): 92.2 µM | TGI (HCT-116 colon): 31.5 µM | TGI (SK-OV-3 ovarian): > 100 µM | TGI (OVCAR-3 ovarian): 67.5 µM | TGI (HL-60(TB) leukemia): 58.1 µM | TGI (SW-620 colon): 45.1 µM | TGI (SK-MEL-2 melanoma): 38.1 µM | TGI (M14 melanoma): 32.7 µM

c1ccc(-c2csc3ncn4cnnc4c23)cc1
TGI (TK-10 renal): > 100 µM | TGI (LOX IMVI melanoma): > 100 µM | TGI (U251 CNS): > 100 µM | TGI (COLO 205 colon): > 100 µM | TGI (CCRF-CEM leukemia): > 100 µM | TGI (RPMI-8226 leukemia): > 100 µM | TGI (786-0 renal): > 100 µM | TGI (DMS 273 small cell lung): > 100 µM | TGI (NCI-H522 lung): > 100 µM | TGI (SF-539 CNS): > 100 µM | TGI (SNB-75 CNS): 89.3 µM | TGI (ACHN renal): > 100 µM | TGI (SK-MEL-5 melanoma): > 100 µM | TGI (HT29 colon): > 100 µM | TGI (SN12C renal): > 100 µM | TGI (UO-31 renal): > 100 µM | TGI (HOP-18 NSCLC): > 100 µM | TGI (NCI-H226 lung): > 100 µM | TGI (RXF-631 renal): > 100 µM | TGI (DMS 114 small cell lung): > 100 µM | TGI (EKVX NSCLC): > 100 µM | TGI (K-562 leukemia): > 100 µM | TGI (DLD-1 colon): > 100 µM | TGI (SNB-19 CNS): > 100 µM | TGI (MOLT-4 leukemia): > 100 µM | TGI (KM20L2 colon): > 100 µM | TGI (SF-295 CNS): > 100 µM | TGI (UACC-62 melanoma): > 100 µM | TGI (LXFL 529 NSCLC): > 100 µM | TGI (SK-MEL-28 melanoma): > 100 µM | TGI (OVCAR-8 ovarian): > 100 µM | TGI (HOP-92 NSCLC): 84.7 µM | TGI (HCT-15 colon): > 100 µM | TGI (SNB-78 CNS): > 100 µM | TGI (OVCAR-4 ovarian): > 100 µM | TGI (NCI-H23 lung): > 100 µM | TGI (A549 NSCLC): > 100 µM | TGI (HCC-2998 colon): > 100 µM | TGI (M19-MEL melanoma): > 100 µM | TGI (IGROV1 ovarian): > 100 µM | TGI (KM12 colon): > 100 µM | TGI (HCT-116 colon): > 100 µM | TGI (SK-OV-3 ovarian): > 100 µM | TGI (OVCAR-3 ovarian): > 100 µM | TGI (HL-60(TB) leukemia): > 100 µM | TGI (SW-620 colon): > 100 µM | TGI (SK-MEL-2 melanoma): > 100 µM | TGI (M14 melanoma): > 100 µM
